Test results published in patent US20240209053A1 (Protagonist Therapeutics, Inc., priority 2021, published 2024).
Numbered stars: 1 amine (or outer) side, 2 acyl side, 3 side chain; on linkers, the order of the positions; unused ones are H or OH. Bridge positions count the residues as written; N and C are the ends. Square brackets hold non-standard residues; d marks the D form. Side chains are listed from the residue outwards. Peptide text beside a SMILES is read from it. * marks the point of attachment. Nle(6-ylidene) = O=C([C@H](CCCC=[*:3])N[*:1])[*:2]; Dip = N[C@H](C(=O)O)C(c1ccccc1)c1ccccc1; Hag = O=C([C@H](CCC=[*:3])N[*:1])[*:2]; Palmitoyl = CCCCCCCCCCCCCCCC(=O)*; tBuAla = CC(C)(C)C[C@H](N)C(=O)O; β3hF = N[C@H](CC(=O)O)Cc1ccccc1; AllylGly = C=CC[C@H](N)C(=O)O; Isovaleryl = CC(C)CC(=O)*; Ahx = NCCCCCC(=O)O

Biological target: T1, human ferroportin (SLC40A1) (Homo sapiens, UniProt Q9NP59)
T1 sequence (Q9NP59 1-571): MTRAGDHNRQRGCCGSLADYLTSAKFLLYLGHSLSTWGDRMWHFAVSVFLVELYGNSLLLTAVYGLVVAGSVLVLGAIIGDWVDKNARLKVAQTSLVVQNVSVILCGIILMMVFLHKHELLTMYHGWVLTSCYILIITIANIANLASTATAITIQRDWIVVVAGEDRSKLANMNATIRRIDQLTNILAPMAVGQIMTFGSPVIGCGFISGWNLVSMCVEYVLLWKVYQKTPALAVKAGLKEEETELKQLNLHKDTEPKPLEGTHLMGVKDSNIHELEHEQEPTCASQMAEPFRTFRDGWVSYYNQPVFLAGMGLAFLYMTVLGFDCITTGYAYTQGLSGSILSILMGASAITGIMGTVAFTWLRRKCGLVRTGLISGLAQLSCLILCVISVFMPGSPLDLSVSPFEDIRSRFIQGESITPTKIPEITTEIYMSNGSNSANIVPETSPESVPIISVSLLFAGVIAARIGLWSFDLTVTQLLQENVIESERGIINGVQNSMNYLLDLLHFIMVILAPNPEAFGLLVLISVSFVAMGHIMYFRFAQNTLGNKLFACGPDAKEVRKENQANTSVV
Assay: FPN activity assay: internalization/degradation of ferroportin-GFP in stably transfected HEK293 cells (decrease in GFP fluorescence)
Assay type: cell-based
Conditions: compound incubated at least 18 hours
Experimental: Peptide analogues were tested in vitro for induction of internalization of the human ferroportin protein. Following internalization, the ferroporin protein is degraded. The assay used (FPN activity assay) measures a decrease in fluorescence of the receptor. The cDNA encoding the human ferroportin (SLC40A1) was cloned from a cDNA clone from Origene (NM_014585). The DNA encoding the ferroportin was amplified by PCR using primers also encoding terminal restriction sites for subcloning, but without the termination codon. The ferroportin receptor was subcloned into a mammalian GFP expression vector containing a neomycin (G418) resistance marker in such that the reading frame of the ferroportin was fused in frame with the GFP protein. The fidelity of the DNA encoding the protein was confirmed by DNA sequencing. HEK293 cells were used for transfection of the ferroportin-GFP receptor expression plasmid. The cells were grown according to standard protocol in growth medium and transfected with the plasmids using Lipofectamine (manufacturer's protocol, Invitrogen). The cells stably expressing ferroportin-GFP were selected using G418 in the growth medium (in that only cells that have taken up and incorporated the cDNA expression plasmid survive) and sorted several times on a Cytomation MoFloTM cell sorter to obtain the GFP-positive cells (488 nm/530 nm). The cells were propagated and frozen in aliquots. […] Compound was added to desired final concentration for at least 18 hours in the incubator. […] Compound was added to desired final concentration for at least 18 hours but no more than 24 hours in the incubator. […] The “RI” in RI-Mini-Hepcidin refers to Retro Inverse. A retro inverse peptide is a peptide with a reversed sequence in all D amino acids. An example is that […] becomes […]. The EC50 of these reference compounds for ferroportin internalization/degradation was determined according to the FPN activity assay described above. These peptides served as control standards.

Structure (SMILES) | IC50 [nM]
CCCCCCCCCCCCCCCC(=O)NCCCCCC(=O)NCCCC[C@H](NC(=O)C[C@H](Cc1ccccc1)NC(=O)[C@@H]1CCC=CCC[C@H](NC(=O)CC(C)C)C(=O)N[C@@H]([C@@H](C)O)C(=O)N[C@@H](Cc2c[nH]cn2)C(=O)N[C@@H](C(c2ccccc2)c2ccccc2)C(=O)N2CCC[C@H]2C(=O)N1)C(N)=O (single isomer, unassigned) [Compd 20] | > 500
CCCCCCCCCCCCCCCC(=O)NCCCCCC(=O)NCCCC[C@@H]1NC(=O)[C@@H]2CCCN2C(=O)[C@H](C(c2ccccc2)c2ccccc2)NC(=O)[C@H](Cc2c[nH]cn2)NC(=O)[C@H]([C@@H](C)O)NC(=O)[C@@H](NC(=O)CC(C)C)CCC=CCC[C@@H](C(=O)N[C@H](CC(=O)N[C@H](CCCCN)C(N)=O)Cc2ccccc2)NC1=O (single isomer, unassigned) [Compd 38] | > 500
CCCCCCCCCCCCCCCC(=O)NCCCCCC(=O)NCCCC[C@@H]1NC(=O)[C@H](C)NC(=O)[C@@H]2CCCN2C(=O)[C@H](C(c2ccccc2)c2ccccc2)NC(=O)[C@H](Cc2c[nH]cn2)NC(=O)[C@H]([C@@H](C)O)NC(=O)[C@@H](NC(=O)CC(C)C)CCC=CCC[C@@H](C(=O)N[C@H](CC(=O)N[C@H](CCCCN)C(N)=O)Cc2ccccc2)NC1=O (single isomer, unassigned) [Compd 39] | 100 to 500
CCCCCCCCCCCCCCCC(=O)NCCCCCC(=O)NCCCC[C@@H]1NC(=O)[C@@H]2CCCN2C(=O)[C@H](C(c2ccccc2)c2ccccc2)NC(=O)[C@H](Cc2c[nH]cn2)NC(=O)[C@H]([C@@H](C)O)NC(=O)[C@@H](NC(=O)CC(C)C)CCC=CCC[C@@H](C(=O)N[C@H](CC(=O)N[C@H](CCCCN)C(N)=O)Cc2ccccc2)NC1=O (single isomer, unassigned) [Compd 40] | > 500
CCCCCCCCCCCCCCCC(=O)NCCCCCC(=O)NCCCC[C@H](NC(=O)C[C@H](Cc1ccccc1)NC(=O)[C@@H]1CCC=CCC[C@H](NC(=O)CC(C)C)C(=O)N[C@@H]([C@@H](C)O)C(=O)N[C@@H](Cc2c[nH]cn2)C(=O)N[C@@H](C(c2ccccc2)c2ccccc2)C(=O)N2CCC[C@H]2C(=O)N1)C(N)=O (single isomer, unassigned) [Compd 86] | > 500
CCCCCCCCCCCCCCCC(=O)NCCCCCC(=O)NCCCC[C@H](NC(=O)C[C@H](Cc1ccccc1)NC(=O)[C@@H](CCCCN)NC(=O)[C@@H](NC(=O)[C@@H]1CCC=CC[C@H](NC(=O)[C@H](Cc2c[nH]cn2)NC(=O)[C@@H](NC(=O)[C@H](CCC(=O)O)NC(=O)CC(C)C)[C@@H](C)O)C(=O)N2CCC[C@H]2C(=O)N1)[C@@H](C)CC)C(=O)N[C@H](CCCCN)C(N)=O [Compd 4] (Isovaleryl-ETH[AllylGly]P[Hag]I[dK][β3hF]K([Ahx-Palmitoyl])[dK]-NH2; staple 4-6) | > 500
CCCCCCCCCCCCCCCC(=O)NCCCCCC(=O)NCCCC[C@H](NC(=O)C[C@H](Cc1ccccc1)NC(=O)[C@@H](CCCCN)NC(=O)[C@@H](NC(=O)[C@@H]1CCC=CCC[C@H](NC(=O)[C@H](Cc2c[nH]cn2)NC(=O)[C@@H](NC(=O)[C@H](CCC(=O)O)NC(=O)CC(C)C)[C@@H](C)O)C(=O)N2CCC[C@H]2C(=O)N1)[C@@H](C)CC)C(=O)N[C@H](CCCCN)C(N)=O [Compd 5] (Isovaleryl-ETH[Hag]P[Hag]I[dK][β3hF]K([Ahx-Palmitoyl])[dK]-NH2; staple 4-6) | > 500
CCCCCCCCCCCCCCCC(=O)NCCCCCC(=O)NCCCC[C@H](NC(=O)C[C@H](Cc1ccccc1)NC(=O)[C@@H](CCCCN)NC(=O)[C@@H](NC(=O)[C@@H]1CCCCC[C@H](NC(=O)[C@H](Cc2c[nH]cn2)NC(=O)[C@@H](NC(=O)[C@H](CCC(=O)O)NC(=O)CC(C)C)[C@@H](C)O)C(=O)N2CCC[C@H]2C(=O)N1)[C@@H](C)CC)C(=O)N[C@H](CCCCN)C(N)=O [Compd 7] | > 500
CCCCCCCCCCCCCCCC(=O)NCCCCCC(=O)NCCCC[C@H](NC(=O)C[C@H](Cc1ccccc1)NC(=O)[C@@H](CCCCN)NC(=O)[C@@H](NC(=O)[C@@H]1CCC=CCC[C@H](NC(=O)[C@@H](NC(=O)[C@H](Cc2c[nH]cn2)NC(=O)[C@@H](NC(=O)[C@H](CCC(=O)O)NC(=O)CC(C)C)[C@@H](C)O)C(c2ccccc2)c2ccccc2)C(=O)N1)[C@@H](C)CC)C(=O)N[C@H](CCCCN)C(N)=O [Compd 11] | > 500
CCCCCCCCCCCCCCCC(=O)NCCCCCC(=O)NCCCC[C@H](NC(=O)C[C@H](Cc1ccccc1)NC(=O)[C@@H]1CCC=CCC[C@H](NC(=O)CC(C)C)C(=O)N[C@@H]([C@@H](C)O)C(=O)N[C@@H](Cc2c[nH]cn2)C(=O)N[C@@H](C(c2ccccc2)c2ccccc2)C(=O)N2CCC[C@H]2C(=O)N[C@@H]([C@@H](C)CC)C(=O)N1)C(N)=O [Compd 19] (Isovaleryl-[Hag]TH[Dip]PI[Hag][β3hF]K([Ahx-Palmitoyl])-NH2; staple 1-7) | > 500
CCCCCCCCCCCCCCCC(=O)NCCCCCC(=O)NCCCC[C@H](NC(=O)[C@@H]1CCC=CCC[C@H](NC(=O)CC(C)C)C(=O)N[C@@H]([C@@H](C)O)C(=O)N[C@@H](Cc2c[nH]cn2)C(=O)N[C@@H](C(c2ccccc2)c2ccccc2)C(=O)N2CCC[C@H]2C(=O)N1)C(N)=O [Compd 21] (Isovaleryl-[Hag]TH[Dip]P[Hag]K([Ahx-Palmitoyl])-NH2; staple 1-6) | > 500
CCCCCCCCCCCCCCCC(=O)NCCCCCC(=O)NCCCC[C@@H]1NC(=O)[C@@H]2CCCN2C(=O)[C@H](C(c2ccccc2)c2ccccc2)NC(=O)[C@H](Cc2c[nH]cn2)NC(=O)[C@H]([C@@H](C)O)NC(=O)[C@@H](NC(=O)CC(C)C)CCCC=CCCC[C@@H](C(=O)N[C@H](CC(=O)N[C@H](CCCCN)C(N)=O)Cc2ccccc2)NC1=O [Compd 35] (Isovaleryl-[Nle(6-ylidene)]TH[Dip]PK([Ahx-Palmitoyl])[Nle(6-ylidene)][β3hF][dK]-NH2; staple 1-7) | > 500
CCCCCCCCCCCCCCCC(=O)NCCCCCC(=O)NCCCC[C@H](NC(=O)C[C@H](Cc1ccccc1)NC(=O)[C@@H]1CCC=CCC[C@H](NC(=O)CC(C)C)C(=O)N[C@@H]([C@@H](C)O)C(=O)N[C@@H](Cc2c[nH]cn2)C(=O)N[C@@H](C)C(=O)N2CCC[C@H]2C(=O)N[C@@H](C)C(=O)N[C@@H]([C@@H](C)CC)C(=O)N1)C(=O)N[C@H](CCCCN)C(N)=O [Compd 43] (Isovaleryl-[Hag]THAPAI[Hag][β3hF]K([Ahx-Palmitoyl])[dK]-NH2; staple 1-8) | > 500
CCCCCCCCCCCCCCCC(=O)NCCCCCC(=O)NCCCC[C@H](NC(=O)C[C@H](Cc1ccccc1)NC(=O)[C@@H]1CCC=CCC[C@H](NC(=O)CC(C)C)C(=O)N[C@@H]([C@@H](C)O)C(=O)N[C@@H](Cc2c[nH]cn2)C(=O)N[C@@H](C(c2ccccc2)c2ccccc2)C(=O)N[C@@H](C)C(=O)N[C@@H](C)C(=O)N[C@@H]([C@@H](C)CC)C(=O)N1)C(=O)N[C@H](CCCCN)C(N)=O [Compd 44] (Isovaleryl-[Hag]TH[Dip]AAI[Hag][β3hF]K([Ahx-Palmitoyl])[dK]-NH2; staple 1-8) | 10 to 100
CCCCCCCCCCCCCCCC(=O)NCCCCCC(=O)NCCCC[C@H](NC(=O)C[C@H](Cc1ccccc1)NC(=O)[C@@H]1CCC=CCC[C@H](NC(=O)CC(C)C)C(=O)N[C@@H](CC(C)(C)C)C(=O)N[C@@H](Cc2c[nH]cn2)C(=O)N[C@@H](C(c2ccccc2)c2ccccc2)C(=O)N2CCC[C@H]2C(=O)N[C@@H](C)C(=O)N[C@@H]([C@@H](C)CC)C(=O)N1)C(=O)N[C@H](CCCCN)C(N)=O [Compd 58] (Isovaleryl-[Hag][tBuAla]H[Dip]PAI[Hag][β3hF]K([Ahx-Palmitoyl])[dK]-NH2; staple 1-8) | > 500
CCCCCCCCCCCCCCCC(=O)NCCCCCC(=O)NCCCC[C@H](NC(=O)C[C@H](Cc1ccccc1)NC(=O)[C@@H]1CCC=CCC[C@H](NC(=O)CC(C)C)C(=O)N[C@@H]([C@@H](C)O)C(=O)N[C@@H](CC(C)(C)C)C(=O)N[C@@H](C(c2ccccc2)c2ccccc2)C(=O)N2CCC[C@H]2C(=O)N[C@@H](C)C(=O)N[C@@H]([C@@H](C)CC)C(=O)N1)C(=O)N[C@H](CCCCN)C(N)=O [Compd 59] (Isovaleryl-[Hag]T[tBuAla][Dip]PAI[Hag][β3hF]K([Ahx-Palmitoyl])[dK]-NH2; staple 1-8) | > 500
